US8673930B2, “Pyrimidylaminobenzamide derivatives for systemic mastocytosis” (Novartis AG, priority 2005, dated 2014)

Experiments:
[1] = test system: systemic mastocytosis (SM) patients; experiment: Phase II open-label study in SM patients; format: in vivo, human; conditions: 400 mg orally twice daily, first 23 pts, preliminary data
Experimental: A Phase II, open-label study was designed to evaluate the safety and efficacy of Compound (II) administered orally 400 mg twice daily. SM patients meeting specific disease criteria and with a clinical indication for treatment were enrolled. The results are based on preliminary data for the first 23 pts in this study. Results: The median age was 49 (range 33-78) yrs and the median time from diagnosis of SM was 27 (range 1 to 292) months. […] The median exposure to Compound (II) was 144 days. Treatment is ongoing for 18 (78%) pts; 5 (22%) discontinued, 3 (13%) for adverse events and 2 (9%) withdrew consent. Three (13%) responses were reported (2 incomplete remission and 1 minor response), based on serum tryptase, bone marrow mast cell counts and improvement of clinical symptoms.

GIST882 cells = experiment: GIST882 cell proliferation assay (ATPLite luminescent ATP detection); format: cell-based; conditions: Homo sapiens; GIST882 cells (KIT K-642-E), 70 h incubation, mean value; read-out: mean IC50, inhibition of proliferation of GIST882 cells
Experimental: The effects of compounds on viability and proliferation of the cells is determined using the luminescent ATP Detection assay kit ATPLite™ from Perkin Elmer Life Sciences (Cat. No: 6016947) according to the instructions of the suppliers. This assay system is based on the production of light (luminescence) caused by the reaction of ATP with added luciferase and D-luciferin.
GIST882, is a human gastrointestinal stromal tumor (GIST) cell line expressing an activating KIT mutation (exon 13, K-642-E) (Tuveson D A, Willis N A, Jacks T, Griffin J D, Singer S, Fletcher C D, Fletcher J A, Demetri G D, STI571 inactivation of the gastrointestinal stromal tumor c-KIT oncoprotein: biological and clinical implications, Oncogene, 2001 Aug. 16; 20(36):5054-8). The GIST882 cells are cultivated in RPMI 1640 (Invitromex, Cat. No: L0501), supplemented with 15% FCS, and 2 mM glutamine (Gibco). […]
GIST882 cells are seeded into black 96-well tissue culture plates (Packard) at a density of 10000 cells per well in 50 μL complete medium and incubated for one day in order to allow for attachment of the cells. […] Subsequently, 50 μL substrate solution (luciferase and D-luciferin) is added and after 5 min shaking and 10 min dark-adaptation of the plates, light emission was measured with a Packard TopCount. […]

Cc1cn(-c2cc(NC(=O)c3ccc(C)c(Nc4nccc(-c5cccnc5)n4)c3)cc(C(F)(F)F)c2)cn1 [Compound (II), 4-methyl-3-[[4-(3-pyridinyl)-2-pyrimidinyl]amino]-N-[5-(4-methyl-1H-imidazol-1-yl)-3-(trifluoromethyl)phenyl]benzamide]
discontinued for adverse events ([1]; median exposure 144 days): 13% | safety and tolerability in pts with SM [1]: acceptable safety and tolerability profile | responses (based on serum tryptase, bone marrow mast cell counts and improvement of clinical symptoms) ([1]; 2 incomplete remission and 1 minor response): 13% | IC50 (GIST882 cells): < 200 nM
